Data on six molecules can be found in patent US11472778B2, “Hepatitis C virus NS3/4A protease inhibitors” (priority 2017, dated 2022).

Where two headings read alike, the source gives them in different places.

For orientation: EC50 means the concentration giving half of the maximal effect.

The conditions of data set [1]: rcm bond, 15-membered ring, Zhan 1b, 1,2-DCE.
The subject of data set [2] is wild-type HCV replicon in Huh7 cells. The data set can be described thus: Cell-based drug susceptibility (replicon) assay, wild-type. Conditions: Hepatitis C virus, read-out: Replicon EC50 (nM) WT. In outline: (§1)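 Con1 (genotype 1b) luciferase reporter replicon carrying H77 (genotype 1a) NS3, with variants made by site-directed mutagenesis, was electroporated into Huh7 cells. Cells were exposed to increasing protease inhibitor concentrations, and replication was read as luciferase activity (relative light units) 96 h after electroporation.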

For data set [3], the system named is HCV replicon D168A variant in Huh7 cells. Kind of data set: microbe, parasite or virus in culture. The format is cell-based, Hepatitis C virus. The settings on record: for EC50: Hepatitis C virus; for Replicon EC50 (Fold change) D168A: Table 4, relative to WT replicon. In outline: as §1
A general note: Replicon systems follow genome replication, usually without infectious particles.

Data set [4] relates to HCV replicon A156T variant in Huh7 cells. The data set can be described thus: microbe, parasite or virus in culture. The format is cell-based, Hepatitis C virus. The settings on record: for EC50: Hepatitis C virus; for Replicon EC50 (Fold change) A156T: Table 4, relative to WT replicon. In outline:
as §1

Data set [5] relates to HCV replicon R155K variant in Huh7 cells. The data set can be described thus: microbe, parasite or virus in culture. The format is cell-based, Hepatitis C virus. Conditions: for EC50: Hepatitis C virus; for Replicon EC50 (Fold change) R155K: Table 4, relative to WT replicon. In outline: as §1
The target in data set [6] is T1, GT3a NS3/4A protease (Hepatitis C virus genotype 3a, UniProt Q81495).
T1 construct: drug-resistant variant D168A, and GT3a NS3/4A protease; made in house; host or cells: Escherichia coli BL21(DE3)
T1 sequence (Q81495 1033-1214): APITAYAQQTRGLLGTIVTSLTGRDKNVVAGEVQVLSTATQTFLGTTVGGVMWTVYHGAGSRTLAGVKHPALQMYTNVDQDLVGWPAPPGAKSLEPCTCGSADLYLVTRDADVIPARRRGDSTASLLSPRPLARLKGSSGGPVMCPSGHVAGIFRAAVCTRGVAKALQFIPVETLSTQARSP
The data set can be described thus: biochemical. In outline:
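Protease at 2 nM pre-incubated 1 h at room temperature with increasing inhibitor concentrations in 50 mM Tris, 5% glycerol, 10 mM DTT, 0.6 mM LDAO, 4% DMSO. Three independent data sets per inhibitor and construct.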

For data set [7], the target named is GT1a D168A NS3/4A protease. It counts as biochemical, Hepatitis C virus. The settings on record: Table 3; Ki D168A relative to GT1a WT. In outline:
(§2)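 NS3/4A protease (2 nM; wild-type GT1a or D168A) pre-incubated 1 h at room temperature with increasing inhibitor in 50 mM Tris pH 7.5, 5% glycerol, 10 mM DTT, 0.6 mM LDAO, 4% DMSO. Ki from three independent data sets per construct; ΔG=RTlnKi.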

In data set [8] the target is T2, wild-type GT1a NS3/4A protease (UniProt P27958, C1185S, species not given).
T2 construct: Ki (nM) GT1a WT NS3/4A Protease
It counts as biochemical, Hepatitis C virus. Conditions: read-out: Ki (nM) GT1a WT NS3/4A Protease. In outline: as §2

In data set [9] the target is T3, GT1a D168A NS3/4A protease (UniProt P27958, C1185S/D1194A, species not given).
T3 construct: Ki (nM) GT1a D168A NS3/4A Protease
The format is biochemical, Hepatitis C virus. Conditions: read-out: Ki (nM) GT1a D168A NS3/4A Protease. In outline: as §2

Data set [10] has as its system HCV replicon D168V variant in Huh7 cells. The data set can be described thus: microbe, parasite or virus in culture. The format is cell-based, Hepatitis C virus. The settings on record: for EC50: Hepatitis C virus; for Replicon EC50 (Fold change) D168V: Table 4, relative to WT replicon. In outline: as §1
[11] abbreviates: Huh-7, 96 h, Table 2, Huh7 cells, luciferase 96 h.
The mark [12] stands for this setting: Huh-7, 96 h, read-out: Replicon EC50 (nM) D168A, Table 2, Huh7 cells, luciferase 96 h.
The mark [13] stands for this setting: Huh-7, read-out: Replicon EC50 (nM) D168A, Table 4.
[14] abbreviates: Huh-7, 96 h, read-out: Replicon EC50 (nM) A156T, Table 2, Huh7 cells, luciferase 96 h.
Where [15] appears, read: Huh-7, read-out: Replicon EC50 (nM) A156T, Table 4.
Setting [16] is: Huh-7, 96 h, read-out: Replicon EC50 (nM) R155K, Table 2, Huh7 cells, luciferase 96 h.
The mark [17] stands for this setting: Huh-7, read-out: Replicon EC50 (nM) R155K, Table 4.
Setting [18] is: Huh-7, 96 h, read-out: Replicon EC50 (nM) D168V, Table 2, Huh7 cells, luciferase 96 h.
Setting [19] is: Huh-7, read-out: Replicon EC50 (nM) D168V, Table 4.

Consider `CCOC(=O)[C@@]12C[C@H]1/C=C\CCCCC[C@H](NC(=O)OC(C)(C)C)C(=O)N1C[C@H](Oc3nc4cc(OC)ccc4nc3C(F)(F)F)C[C@H]1C(=O)N2`, for which the ring closure, isolated yield in data set [1] (from C=CCCCCC[C@H](NC(=O)OC(C)(C)C)C(=O)N1C[C@H](Oc2nc3cc(OC)ccc3nc2C(F)(F)F)C[C@H]1C(=O)N[C@]1(C(=O)OCC)C[C@H]1C=C, 6.7 mM, 70.0 °C, 5.0 h) was determined as 70%.

`COc1ccc2nc(C)c(O[C@@H]3C[C@H]4C(=O)N[C@]5(C(=O)NS(=O)(=O)C6CC6)C[C@H]5/C=C\CCCCC[C@H](NC(=O)OC(C)(C)C)C(=O)N4C3)nc2c1` [Compound 18b, tert-Butyl ((2R,6S,13aS,14aR,16aS,Z)-14a-((cyclopropylsulfonyl)carbamoyl)-2-((7-methoxy-3-methylquinoxalin-2-yl)oxy)-5,16-dioxo-1,2,3,5,6,7,8,9,10,11,13a,14,14a,15,16,16a-hexadecahydrocyclopropa[e]pyrrolo[1,2-a][1,4]diazacyclopentadecin-6-yl)carbamate]: the EC50 in data set [2] (setting [11]) amounted to 0.39 nM; in data set [2] (Huh-7, Table 4), 0.39 nM; in [3] (setting [12]), 4.24 nM; in [3] (setting [13]), 4.24 nM; in [4] (setting [14]) it was 5.95 nM; in data set [4] (setting [15]), 5.95 nM. The concentration giving a half-maximal response (EC50) in data set [5] (setting [16]) is 1.17 nM; in [5] (setting [17]), 1.17 nM; in [10] (setting [18]), 3.17 nM; in data set [10] (setting [19]) it was 3.17 nM. This molecule also showed a ring closure, isolated yield in data set [1] (6.5 mM, 70.0 °C) of 45%. Moreover, the “Replicon EC50 (Fold change) D168A” value in data set [3] is “(11) fold”. Also, the “Replicon EC50 (Fold change) A156T” value in data set [4] is recorded as “(15) fold”. For the same molecule, the “Replicon EC50 (Fold change) R155K” value in data set [5] is recorded as “(3) fold”. Also, the Ki in data set [6] turned out to be 152 nM; in [8] (Table 1) it was 3.4 nM; in [8] (Table 3), 3.4 nM; in [9] (Table 1) it was 50.9 nM; in [9] (Table 3) it was 50.9 ± 3.7 nM. Further, the “Ki (Fold change) GT3a NS3/4A Protease” value in data set [6] (Table 3, Ki GT3a relative to GT1a WT) is “(45) fold”. The “Ki (Fold change) GT1a D168A NS3/4A Protease” value in [7] is “(15) fold”. For the same molecule, the “Replicon EC50 (Fold change) D168V” value in data set [10] is “(8) fold”.

As to `CC(C)(C)OC(=O)N[C@H]1CCCCC/C=C\[C@@H]2C[C@@]2(C(=O)NS(=O)(=O)C2CC2)NC(=O)[C@@H]2C[C@@H](Oc3nc4ccccc4nc3-c3cccs3)CN2C1=O` [Compound 18f, tert-Butyl ((2R,6S,13aS,14aR,16aS,Z)-14a-((cyclopropylsulfonyl)carbamoyl)-5,16-dioxo-2-((3-(thiophen-2-yl)quinoxalin-2-yl)oxy)-1,2,3,5,6,7,8,9,10,11,13a,14,14a,15,16,16a-hexadecahydrocyclopropa[e]pyrrolo[1,2-a][1,4]diazacyclopentadecin-6-yl)carbamate, reference compound], the EC50 amounted to 0.98 nM in [2] (setting [11]); 0.98 nM in [2] (Huh-7, Table 4); 111 nM in data set [3] (setting [12]); 111 nM in [3] (setting [13]); 256 nM in data set [4] (setting [14]); 256 nM in data set [4] (setting [15]). Moreover, the EC50 in data set [5] (setting [16]) came to 21.7 nM; in data set [5] (setting [17]), 21.7 nM; in [10] (setting [18]) it was 193 nM; in [10] (setting [19]), 193 nM. For the same molecule, the ring closure, isolated yield in data set [1] (from C=CCCCCC[C@H](NC(=O)OC(C)(C)C)C(=O)N1C[C@H](Oc2nc3ccccc3nc2-c2cccs2)C[C@H]1C(=O)N[C@]1(C(=O)NS(=O)(=O)C2CC2)C[C@H]1C=C, 3.5 mM, 70.0 °C) stood at 61%; in [1] (3.5 mM), 61%. The “Replicon EC50 (Fold change) D168A” value in data set [3] is reported as “(113) fold”. In addition, in data set [4], the “Replicon EC50 (Fold change) A156T” value is listed as “(261) fold”. Moreover, in [5], the “Replicon EC50 (Fold change) R155K” value was “(22) fold”. Also, the Ki in [8] (Table 1) was 1.03 nM; in data set [8] (Table 3), 1.03 nM; in data set [9] (Table 1), 1820 nM; in data set [9] (Table 3) it was 1820 ± 347 nM. For the same molecule, in [10], the “Replicon EC50 (Fold change) D168V” value is on record as “(197) fold”.

For `CCc1nc2ccccc2nc1O[C@@H]1C[C@H]2C(=O)N[C@]3(C(=O)NS(=O)(=O)C4CC4)C[C@H]3/C=C\CCCCC[C@H](NC(=O)OC(C)(C)C)C(=O)N2C1` [Compound 18g, tert-Butyl ((2R,6S,13aS,14aR,16aS,Z)-14a-((cyclopropylsulfonyl)carbamoyl)-2-((3-ethylquinoxalin-2-yl)oxy)-5,16-dioxo-1,2,3,5,6,7,8,9,10,11,13a,14,14a,15,16,16a-hexadecahydrocyclopropa[e]pyrrolo[1,2-a][1,4]diazacyclopentadecin-6-yl)carbamate], the EC50 worked out at 0.46 nM in [2] (setting [11]); 0.46 nM in data set [2] (Huh-7, Table 4); 8.55 nM in data set [3] (setting [12]); 8.55 nM in data set [3] (setting [13]); 10.6 nM in data set [4] (setting [14]); 10.6 nM in [4] (setting [15]). Also, the EC50 is 1.81 nM in data set [5] (setting [16]), 1.81 nM in [5] (setting [17]), 14 nM in data set [10] (setting [18]) and 14 nM in data set [10] (setting [19]). In data set [1] (6.9 mM), the ring closure, isolated yield amounted to 60%. The “Replicon EC50 (Fold change) D168A” value in data set [3] is given as “(19) fold”. Further, the “Replicon EC50 (Fold change) A156T” value in data set [4] is “(23) fold”. Also, the “Replicon EC50 (Fold change) R155K” value in data set [5] is “(4) fold”. For the same molecule, the “Ki (Fold change) GT1a D168A NS3/4A Protease” value in data set [7] is “(26) fold”. Further, the Ki is 7.18 nM in data set [8] (Table 1), 7.18 nM in [8] (Table 3), 190 nM in [9] (Table 1) and 190 ± 13 nM in data set [9] (Table 3). Further, in data set [10], the “Replicon EC50 (Fold change) D168V” value is “(30) fold”.

Regarding `COc1ccc2nc(C(C)C)c(O[C@@H]3C[C@H]4C(=O)N[C@]5(C(=O)NS(=O)(=O)C6(C)CC6)C[C@H]5/C=C\CCCCC[C@H](NC(=O)OC(C)(C)C)C(=O)N4C3)nc2c1` [Compound 19e, tert-Butyl ((2R,6S,13aS,14aR,16aS,Z)-2-((3-isopropyl-7-methoxyquinoxalin-2-yl)oxy)-14a-(((1-methylcyclopropyl)sulfonyl)carbamoyl)-5,16-dioxo-1,2,3,5,6,7,8,9,10,11,13a,14,14a,15,16,16a-hexadecahydrocyclopropa[e]pyrrolo[1,2-a][1,4]diazacyclopentadecin-6-yl)carbamate], the EC50 in data set [2] (setting [11]) came out at 1.86 nM; in [2] (Huh-7, Table 4) it was 1.86 nM; in data set [3] (setting [12]) it was 11.9 nM; in data set [3] (setting [13]), 11.9 nM; in [4] (setting [14]) it was 21.2 nM; in data set [4] (setting [15]), 21.2 nM. Further, the EC50 in data set [5] (setting [16]) stood at 4.14 nM; in [5] (setting [17]) it was 4.14 nM; in data set [10] (setting [18]), 18.1 nM; in data set [10] (setting [19]), 18.1 nM. In data set [1] (6.6 mM), the ring closure, isolated yield was found to be 60%. In addition, in data set [3], the “Replicon EC50 (Fold change) D168A” value is “(6) fold”. The “Replicon EC50 (Fold change) A156T” value in data set [4] is reported as “(11) fold”. The “Replicon EC50 (Fold change) R155K” value in data set [5] was “(2) fold”. Also, the “Ki (Fold change) GT1a D168A NS3/4A Protease” value in [7] is recorded as “(364) fold”. Further, the Ki is 0.58 nM in data set [8] (Table 1), 0.58 nM in data set [8] (Table 3), 211 nM in data set [9] (Table 1) and 211 ± 19 nM in [9] (Table 3). The “Replicon EC50 (Fold change) D168V” value in data set [10] is listed as “(10) fold”.

Take “tert-Butyl 42R,6S,13aS,14aR,16aS,Z)-14a-((cyclopropylsulfonyl)carbamoyl)-2-((3-isopropyl-7-methoxyquinoxalin-2-yl)oxy)-5,16-dioxo-1,2,3,5,6,7,8,9,10,11,13a,14,14a,15,16,16a-hexadecahydrocyclopropa[e]pyrrolo[1,2-a][1,4]diazacyclopentadecin-6-yl)carbamate”: in [1] (6.6 mM, 70.0 °C), the ring closure, isolated yield was 58%.
